This note sets out measurements from PubChem BioAssay AID2327 (Broad Institute, 2010).

Results filed as inconclusive are left out. Calls of active or inactive are those of the source.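 The calls were made as follows: active = compound whose fitted EC50 for lowering fibroblast viability lies at most a set limit above the top dose tested; inconclusive = flat fit with 30 to 70% activity, or poor fit; inactive = the rest.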

The test system of this assay is NIH-3T3 fibroblast viability, Alamar Blue, 48 h, fluconazole. Nature of the assay: NIH-3T3 fibroblast cytotoxicity, dose response, cytotoxicity control, cell-based, fluorescence, Alamar Blue, secondary assay (AID 2327).
For `C[C@]12CC[C@H](O)C[C@@H]1CC[C@@H]1[C@@H]2CC[C@]2(C)C(=O)CC[C@@H]12`, the EC50 was > 16 µM (inactive).
`NC(=NCCCCCCN=C(N)/N=C(\N)Nc1ccc(Cl)cc1)/N=C(\N)Nc1ccc(Cl)cc1`: the EC50 is > 16 µM (inactive).
Take `O=C1/C(=C\c2cccnc2)SC(=S)N1C1CCS(=O)(=O)C1` (configuration not stated): the EC50 was > 16 µM (inactive).
In the case of `O=C1/C(=C/c2cccnc2)SC(=S)N1C1CCS(=O)(=O)C1` (configuration not stated), the EC50 is > 15 µM (inactive).
As for `CC1CCC(C(C)C)C(OC(=O)Cn2c(-c3ccc(Br)cc3)[n+](C)c3ccccc32)C1` (configuration not stated), the figure is > 16 µM (inactive); as for `C[C@]12CCC3[C@@H](CC[C@H]4C[C@@H](O)CC[C@]34C)C1CCC2=O` (some centres not stated), > 15 µM (inactive); as for `CC1CCC(C(C)C)C(OC(=O)C[n+]2cc(-c3ccc(Cl)cc3)n3c2CCCCC3)C1` (configuration not stated), > 16 µM (inactive).
